Experimental data published in patent US7906522B2, “2-aminoquinazoline derivatives” (Kyowa Hakko Kirin Co., Ltd, priority 2005, dated 2011).

Legend:
Activated human p38α = biological target: T1, Activated human p38α (Homo sapiens, UniProt Q16539); assay: p38MAP kinase inhibition test; format: biochemical; conditions: at a concentration of 1 μmol/L; substrate myelin basic protein, ATP 20 μmol/L, [γ-32P]ATP; read-out: enzyme inhibitory activity
T1 construct: purchased Upstate Biotechnology Inc. 14-251
T1 sequence (Q16539 whole entry): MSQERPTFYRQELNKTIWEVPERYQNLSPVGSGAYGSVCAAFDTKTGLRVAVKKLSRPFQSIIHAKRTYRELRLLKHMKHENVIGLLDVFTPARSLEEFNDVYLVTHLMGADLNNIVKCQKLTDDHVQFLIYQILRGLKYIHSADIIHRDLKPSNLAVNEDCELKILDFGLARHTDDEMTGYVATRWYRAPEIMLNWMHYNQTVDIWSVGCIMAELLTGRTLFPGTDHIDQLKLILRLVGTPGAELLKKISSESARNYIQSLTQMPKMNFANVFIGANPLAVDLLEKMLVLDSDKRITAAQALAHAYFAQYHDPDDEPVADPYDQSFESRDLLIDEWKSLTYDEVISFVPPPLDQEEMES
Method in brief: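 Phosphorylation of myelin basic protein (20 μg/assay) by the kinase measured via [γ-32P]ATP incorporation at 20 μmol/L ATP, pH 7.2 MOPS buffer, 30° C. for 15 min. Labelled substrate bound to P81 paper, washed, and quantified by scintillation counting; compounds added in DMSO.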

| Compound | inhibition at 1 µM (Activated human p38α) [%] | melting point [°C] |
| --- | --- | --- |
| CCC(CC)Nc1ncc2cc(-c3ccccc3C)c(O)cc2n1 [Compound 170, 2-(3-Pentylamino)-7-hydroxy-6-(2-methylphenyl)quinazoline] | ≥ 50 | 198 to 200 |
| CCc1cccc(C)c1Nc1ncc2cc(-c3ccccc3C)c(O)cc2n1 [Compound 180, 2-(2-Ethyl-6-methylanilino)-7-hydroxy-6-(2-methylphenyl)quinazoline] | ≥ 50 | 130 to 133 |
| CC(C)Nc1ncc2cc(-c3cccc(C(=O)Nc4cccc(N5CCCC5)c4)c3)c(O)cc2n1 [Compound 330, 7-Hydroxy-2-isopropylamino-6-{3-[3-(pyrrolidin-1-yl)phenylcarbamoyl]phenyl}quinazoline] | ≥ 50 | 251 to 253 |
| CC(C)Nc1ncc2cc(-c3cccc(NC(=O)c4cc(F)cc(N5CCCC5)c4)c3)c(O)cc2n1 [Compound 351, 6-{3-[3-Fluoro-5-(pyrrolidin-1-yl)benzoylamino]phenyl}-7-hydroxy-2-(isopropylamino)quinazoline] | ≥ 50 | 229 |
| CC(C)Nc1ncc2cc(-c3cccc(NC(=O)c4ccnc(N5CCOCC5)c4)c3)c(O)cc2n1 [Compound 290, 7-Hydroxy-2-isopropylamino-6-{3-[(2-morpholinopyridin-4-yl)carbonylamino]phenyl}quinazoline] | ≥ 50 | 258 |
| Cc1ccccc1-c1cc2cnc(Nc3ccccc3)nc2cc1O [Compound 178, 2-Anilino-7-hydroxy-6-(2-methylphenyl)quinazoline] | ≥ 50 | 234 to 236 |
| COc1cc2nc(NC(C)C)ncc2cc1-c1cc(C(=O)NC2CC2)ccc1C [Compound 236, 6-(5-Cyclopropylcarbamoyl-2-methylphenyl)-2-isopropylamino-7-methoxyquinazoline] | ≥ 50 | 122 to 125 |
| CCC(CC)Nc1ncc2cc(-c3cccc(NC(=O)c4cccc(N(C)C)c4)c3)c(O)cc2n1 [Compound 366, 6-{3-[(3-Dimethylaminophenyl)carbonylamino]phenyl}-2-(3-pentylamino)-7-hydroxyquinazoline] | ≥ 50 | 152 |
| CC(C)Nc1ncc2cc(-c3cccc(NC(=O)c4cc(F)cc(N5CCOCC5)c4)c3)c(O)cc2n1 [Compound 332, 6-[3-(3-Fluoro-5-morpholinobenzoylamino)phenyl]-7-hydroxy-2-(isopropylamino)quinazoline] | ≥ 50 | 217 to 219 |
| Cc1cc(C)c(Nc2ncc3cc(-c4ccccc4C)c(O)cc3n2)c(C)c1 [Compound 300, 7-Hydroxy-6-(2-methylphenyl)-2-(2,4,6-trimethylanilino)quinazoline] | ≥ 50 | 142 |
| Cc1ccccc1-c1cc2cnc(Nc3c(Cl)cccc3Cl)nc2cc1O [Compound 176, 2-(2,6-Dichloroanilino)-7-hydroxy-6-(2-methylphenyl)quinazoline] | ≥ 50 | 226 to 227 |
| CC(C)Nc1ncc2cc(-c3cccc(NC(=O)c4ccnc(N5CCCCC5)c4)c3)c(O)cc2n1 [Compound 349, 7-Hydroxy-2-isopropylamino-6-{3-[(2-piperidinopyridin-4-yl)carbonylamino]phenyl}quinazoline] | ≥ 50 | 226 to 227 |
| COc1c(NC(=O)c2ccc(C)c(-c3cc4cnc(NC(C)C)nc4cc3O)c2)cc(C(C)(C)C)cc1NS(C)(=O)=O [Compound 348, 6-{5-[(5-tert-Butyl-2-methoxy-3-methylsulfonylaminophenyl)carbamoyl]-2-methylphenyl}-7-hydroxy-2-(isopropylamino)quinazoline] | ≥ 50 | 251 to 253 |
| Cc1ccccc1-c1cc2cnc(Nc3c(C)cccc3C)nc2cc1O [Compound 175, 2-(2,6-Dimethylanilino)-7-hydroxy-6-(2-methylphenyl)quinazoline] | ≥ 50 | 220 to 222 |
| CC(C)Nc1ncc2cc(-c3cccc(NC(=O)c4cccc(N5CCOCC5)c4)c3)c(O)cc2n1 [Compound 340, 7-Hydroxy-2-isopropylamino-6-[3-(3-morpholinobenzoylamino)phenyl]quinazoline] | ≥ 50 | 230 |
| CC[C@H](C)Nc1ncc2cc(-c3ccccc3Cl)c(O)cc2n1 [Compound 163, (S)-2-(sec-Butylamino)-6-(2-chlorophenyl)-7-hydroxyquinazoline] | ≥ 50 | 173 to 175 |
| CONC(=O)c1ccc(C)c(-c2cc3cnc(NC(C)C)nc3cc2O)c1 [Compound 353, 7-Hydroxy-2-isopropylamino-6-(5-methoxycarbamoyl-2-methylphenyl)quinazoline] | ≥ 50 | 158 to 161 |
| CC(C)Nc1ncc2cc(-c3cccc(NC(=O)c4ccnc(N5CCCC5)c4)c3)c(O)cc2n1 [Compound 336, 7-Hydroxy-2-isopropylamino-6-{3-[2-(pyrrolidin-1-yl)pyridin-4-ylcarbonylamino]phenyl}quinazoline] | ≥ 50 | 248 to 249 |
| COc1ccc(C(F)(F)F)cc1NC(=O)c1ccc(C)c(-c2cc3cnc(NC(C)C)nc3cc2O)c1 [Compound 338, 7-Hydroxy-2-isopropylamino-6-{5-[(2-methoxy-5-trifluoromethylphenyl)carbamoyl]-2-methylphenyl}quinazoline] | ≥ 50 | 280 to 281 |
| Cc1ccc(NC(=O)c2ccnc(N3CCOCC3)c2)cc1-c1cc2cnc(NC(C)C)nc2cc1O [Compound 346, 7-Hydroxy-2-isopropylamino-6-{2-methyl-5-[(2-morpholinopyridin-4-yl)carbonylamino]phenyl}quinazoline] | ≥ 50 | 169 to 172 |
| CS(=O)(=O)N1CCC(Nc2ncc3cc(-c4cccc(O)c4)c(O)cc3n2)CC1 [Compound 247, 7-Hydroxy-6-(3-hydroxyphenyl)-2-[1-(methylsulfonyl)piperidin-4-ylamino]quinazoline] | ≥ 50 | 285 to 290 |
| Cc1ccc(C(=O)NC2CC2)cc1-c1cc2cnc(Nc3c(Cl)cccc3Cl)nc2cc1O [Compound 319, 6-(5-Cyclopropylcarbamoyl-2-methylphenyl)-2-(2,6-dichloroanilino)-7-hydroxyquinazoline] | ≥ 50 | 190 to 193 |
| CC(C)Nc1ncc2cc(-c3cccc(NC(=O)c4ccnc(-c5ccc(F)cc5)c4)c3)c(O)cc2n1 [Compound 355, 6-{3-[2-(4-Fluorophenyl)pyridin-4-ylcarbonylamino]phenyl}-7-hydroxy-2-(isopropylamino)quinazoline] | ≥ 50 | 243 to 245 |
| CC[C@H](C)Nc1ncc2cc(-c3cccc(NC(=O)c4ccnc(N5CCOCC5)c4)c3)c(O)cc2n1 [Compound 363, (S)-2-(sec-butylamino)-7-hydroxy-6-{3-[(2-morpholinopyridin-4-yl)carbonylamino]phenyl}quinazoline] | ≥ 50 | 183 to 184 |
